Measured values reported in article PMC9925730, “Controlled sequential in situ self-assembly and disassembly of a fluorogenic cisplatin prodrug for cancer theranostics” (Nature Communications, 2023).
Where “and” joins values, the source holds several entries; their conditions need not be identical. Equal values may be shown once.

Key:
HeLa cells = test: Flow cytometry analysis of HeLa cell death (Annexin V-FITC/PI); format: cell-based, human; conditions: 20 μM 2 h, then blank medium 48 h
Method: Flow cytometric analysis of HeLa cell death. (a) Gating strategy applied for flow cytometric analysis. (b) Representative flow cytometric analysis of HeLa cells by Annexin V-FITC/PI staining. HeLa cells were treated with PBS, CDDP, PtIVNPs or P-CyPt (20 μM) for 2 h, washed with cold PBS for three times, and then continued incubation in refresh blank DMEM medium for another 48 h. The cells were then stained with the Annexin V-FITC/PI kit, and analyzed by flow cytometry. One representative experiment out of two is shown.
Flow cytometry analysis of HeLa cell death. Approximately 2×10^5 cells/well HeLa cells in 2 mL DMEM medium were seeded onto 6-well plates and allowed to grow overnight. The medium was replaced with 1 mL of fresh medium containing P-CyPt (20 μM), PtIVNPs (20 μM) and CDDP (20 μM), respectively. After 2 h incubation, medium was removed and cells were washed with PBS for three times. Then, cells were incubated with fresh medium for another 48 h to induce different levels of apoptosis.
After gentle washing with PBS (×1), the cells were detached from the plates with trypsin (500 μL per well), and the cell pellets were collected after centrifugation at 1000 161× g at 4 °C for 4 min. […] All assays were performed according to the manufacturer instructions, and the cell population was analyzed by annexin V-FITC and PI channels. […]

[1] = test system: supercoiled pBR322 plasmid DNA; test: Ability to break DNA double strand (agarose gel electrophoresis); format: biochemical; conditions: 100 μM, 37 °C, 16 h
Method: Evaluation of the ability to break DNA double strand
by different species of Pt compounds. (a) Agarose gel electrophoresis of supercoiled
pBR322 plasmid DNA (10 ng/μL) after incubating with indicated conditions.
represents the linear DNA marker ladder (500-12000 bp); Lane i: DNA; Lane ii: DNA
+ GSH (2 mM); Lane iii: DNA + CDDP (100 μM); Lane iv: DNA + CDDP (100 μM)
+ GSH (2 mM); Lane v: DNA + P-CyPt (100 μM); Lane vi: DNA + P-CyPt (100 μM)
+ GSH (2 mM), Lane vii: DNA +P-CyPt (100 μM) + ALP (500 U/L), Lane viii: DNA
+P-CyPt (100 μM) + ALP (500 U/L) +GSH (2 mM); (b) Agarose gel electrophoresis
of supercoiled pBR322 plasmid DNA (20 ng/μL) after incubating with varying
concentrations of P-CyPt (0, 1, 2, 5, 10, 20, 50 and 100 μM) respectively) plus ALP
(500 U/L), followed by incubation with GSH (2 mM) in Tris buffer at 37 °C for 16 h.
One representative experiment out of two is shown.

[2] = test system: orthotopic HepG2/Luc liver tumors; test: Chemotherapy of orthotopic liver tumors (BL imaging, ex vivo BL and FL imaging); format: in vivo, mice;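 as to tumor BL intensity of liver: bioluminescence quantified by ROI over liver region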
Method: During the treatment, the body weights of mice were also measured every three days. On day 15, all mice were sacrificed, the whole liver were excised and photographed. Then, P-CyPt (10 μM) and D-luciferin (5 mM) were sprayed on the surface of each liver to performed ex vivo BL and NIR FL imaging. The BL images were acquired at 10 min using the BL imaging mode (Open), and the NIR FL images were acquired at 30 min, using a 660 nm excitation filter and a 750 ± 50 nm emission filter. The average BL and FL intensities were quantified by the ROIs measurement in the tumor region of liver using the Living Image Software (4.5.2, PerkinElmer, MA, U.S.A). Each experiment was conducted in four mice.

[3] = Blood analysis in healthy mice (blood count, biochemistry); format: in vivo; design: BUN / CRE / WBC / HGB / HCT / MCH / MCHC / MCV / RBC / ALT / AST / TP / T-Bil / Alb: unit not given here; conditions: for HGB: Supplementary Fig. 36, first HGB block; for ALT / AST / Alb / BUN / CRE / HCT / MCH / MCHC / MCV / PLT / RBC / T-Bil / TP / WBC: Supplementary Fig. 36
[4] = Body weight of mice with orthotopic HepG2/Luc liver tumors; format: in vivo; conditions: individual samples, in g (unit assumed)
[5] = as above; format: in vivo; conditions: mean of 3, in g (unit assumed)

[NH2][Pt]([NH2])([Cl])[Cl] [CDDP, cisplatin]
apoptosis population (HeLa cells): ~ 5.20%
effect on supercoiled pBR322 DNA ([1]; plus GSH (2 mM)): prevent its binding with the DNA double strand
effect on supercoiled pBR322 DNA ([1]; without GSH): cannot obviously relax or break
tumor BL over the course of treatment ([2]; 2.25 mg kg^−1 Pt i.v. on day 0, 3, 6, 9, 12): markedly increased
tumor BL intensity of liver ([2]; day 15): 861747.5
Normalized FL intensity of mCy (ex vivo liver tumor, Fig. 5h) ([2]; day 15, livers sprayed with P-CyPt 10 μM, normalized to PBS group): 0.90
Normalized BL intensity (ex vivo liver tumor, Fig. 5h) ([2]; day 15, normalized to PBS group): 0.87
HGB ([3]; individual mice): 90 (2×) and 67
HGB ([3]; mean of 3 mice): 82.333
ALT ([3]; individual mice): 45.502 and 43.964 and 66.025
AST ([3]; individual mice): 126.05 and 97.802 and 100.507
Alb ([3]; individual mice): 26.65 and 25.18 and 35.22
BUN ([3]; individual mice): 18.956 and 37.908 and 23.94
CRE ([3]; individual mice): 19.831 and 68.509 and 25.561
HCT ([3]; individual mice): 35.4 and 40.2 and 41.2
MCH ([3]; individual mice): 16.6 and 15.9 and 18.6
MCHC ([3]; individual mice): 350 and 331 and 324
MCV ([3]; individual mice): 51.5 and 49.5 and 51.3
PLT ([3]; individual mice): 591 and 289 and 329
RBC ([3]; individual mice): 7.14 and 6.54 and 6.58
T-Bil ([3]; individual mice): 21.47 and 18.852 and 18.358
TP ([3]; individual mice): 42.81 and 40.21 and 50.47
WBC ([3]; individual mice): 1.9 and 1.2 and 1.6
ALT ([3]; mean of 3 mice): 51.830
AST ([3]; mean of 3 mice): 108.120
Alb ([3]; mean of 3 mice): 29.017
BUN ([3]; mean of 3 mice): 26.935
CRE ([3]; mean of 3 mice): 37.967
HCT ([3]; mean of 3 mice): 38.933
MCH ([3]; mean of 3 mice): 17.033
MCHC ([3]; mean of 3 mice): 335.000
MCV ([3]; mean of 3 mice): 50.767
PLT ([3]; mean of 3 mice): 403.000
RBC ([3]; mean of 3 mice): 6.753
T-Bil ([3]; mean of 3 mice): 19.560
TP ([3]; mean of 3 mice): 44.497
WBC ([3]; mean of 3 mice): 1.567
Body weight of mice (Supplementary Fig. 34) ([4]; time 0 d): 19.83 and 20.11 and 22.01
Body weight of mice (Supplementary Fig. 34) ([4]; time 3 d): 18.72 and 20.66 and 21.22
Body weight of mice (Supplementary Fig. 34) ([4]; time 6 d): 17.7 and 19.43 and 21.14
Body weight of mice (Supplementary Fig. 34) ([4]; time 9 d): 17.17 and 18.45 and 20.33
Body weight of mice (Supplementary Fig. 34) ([4]; time 12 d): 16.32 and 17.76 and 19.54
Body weight of mice (Supplementary Fig. 34) ([4]; time 15 d): 16.24 and 17.17 and 19.09
Body weight of mice (Supplementary Fig. 34) ([5]; time 0 d): 20.65
Body weight of mice (Supplementary Fig. 34) ([5]; time 3 d): 20.2
Body weight of mice (Supplementary Fig. 34) ([5]; time 6 d): 19.4233
Body weight of mice (Supplementary Fig. 34) ([5]; time 9 d): 18.65
Body weight of mice (Supplementary Fig. 34) ([5]; time 12 d): 17.8733
Body weight of mice (Supplementary Fig. 34) ([5]; time 15 d): 17.5
